The test system of the experiment is MCH receptors. As to the kind of experiment: MCH receptor activity class (method not given). The note with it: class by percent of control at 10^−7 M or IC50.

`Cc1cnc(N[C@H]2CC[C@@H](NC(=O)c3cccnc3Oc3ccccc3F)CC2)nc1N(C)C` [compound 2891, N-(cis-4-{[4-(dimethylamino)-5-methylpyrimidin-2-yl]amino}cyclohexyl)-2-(2-fluorophenoxy)nicotinamide]: the class was 1 (Class 1: The value of percent of control at 10^−7 M was less than 40% or the value of IC50 was less than 50 nM.).
For the molecule `Cc1cnc(N[C@H]2CC[C@@H](NC(=O)c3cccnc3Oc3ccccc3Cl)CC2)nc1N(C)C` [compound 2892, 2-(2-chlorophenoxy)-N-(cis-4-{[4-(dimethylamino)-5-methylpyrimidin-2-yl]amino}cyclohexyl)nicotinamide], the class was 1 (Class 1: The value of percent of control at 10^−7 M was less than 40% or the value of IC50 was less than 50 nM.).
With `Cc1cnc(N[C@H]2CC[C@@H](NC(=O)c3cccnc3Oc3cccc(Cl)c3)CC2)nc1N(C)C` [compound 2893, 2-(3-chlorophenoxy)-N-(cis-4-{[4-(dimethylamino)-5-methylpyrimidin-2-yl]amino}cyclohexyl)nicotinamide] the figure was 1 (Class 1: The value of percent of control at 10^−7 M was less than 40% or the value of IC50 was less than 50 nM.); with `Cc1cnc(N[C@H]2CC[C@@H](NC(=O)c3cccnc3Oc3cccc(Br)c3)CC2)nc1N(C)C` [compound 2894, 2-(3-bromophenoxy)-N-(cis-4-{[4-(dimethylamino)-5-methylpyrimidin-2-yl]amino}cyclohexyl)nicotinamide], 1 (Class 1: The value of percent of control at 10^−7 M was less than 40% or the value of IC50 was less than 50 nM.).
Turning to `Cc1cnc(N[C@H]2CC[C@@H](NC(=O)c3cccnc3Oc3cccc(C(F)(F)F)c3)CC2)nc1N(C)C` [compound 2895], the class is listed as 1 (Class 1: The value of percent of control at 10^−7 M was less than 40% or the value of IC50 was less than 50 nM.).
With `Cc1cnc(N[C@H]2CC[C@@H](NC(=O)c3cccc(C(F)(F)F)c3)CC2)nc1N(C)C` [compound 2896, N-(cis-4-{[4-(dimethylamino)-5-methylpyrimidin-2-yl]amino}cyclohexyl)-3-(trifluoromethyl)benzamide] the figure was 1 (Class 1: The value of percent of control at 10^−7 M was less than 40% or the value of IC50 was less than 50 nM.).
With `Cc1cnc(N[C@H]2CC[C@@H](NC(=O)c3cccc(F)c3)CC2)nc1N(C)C` [compound 2897, N-(cis-4-{[4-(dimethylamino)-5-methylpyrimidin-2-yl]amino}cyclohexyl)-3-fluorobenzamide] the figure was 1 (Class 1: The value of percent of control at 10^−7 M was less than 40% or the value of IC50 was less than 50 nM.); with `Cc1cnc(N[C@H]2CC[C@@H](NC(=O)c3cccc(Br)c3)CC2)nc1N(C)C` [compound 2898, 3-bromo-N-(cis-4-{[4-(dimethylamino)-5-methylpyrimidin-2-yl]amino}cyclohexyl)benzamide], 1 (Class 1: The value of percent of control at 10^−7 M was less than 40% or the value of IC50 was less than 50 nM.); with `Cc1cnc(N[C@H]2CC[C@@H](NC(=O)c3ccc(F)cc3)CC2)nc1N(C)C` [compound 2899, N-(cis-4-{[4-(dimethylamino)-5-methylpyrimidin-2-yl]amino}cyclohexyl)-4-fluorobenzamide], 1 (Class 1: The value of percent of control at 10^−7 M was less than 40% or the value of IC50 was less than 50 nM.).
Consider `COc1cc(OC)cc(C(=O)N[C@H]2CC[C@@H](Nc3ncc(C)c(N(C)C)n3)CC2)c1` [compound 2900, N-(cis-4-{[4-(dimethylamino)-5-methylpyrimidin-2-yl]amino}cyclohexyl)-3,5-dimethoxybenzamide], for which the class is given as 1 (Class 1: The value of percent of control at 10^−7 M was less than 40% or the value of IC50 was less than 50 nM.).
Next, `Cc1cnc(N[C@H]2CC[C@@H](NC(=O)c3ccc(F)cc3F)CC2)nc1N(C)C` [compound 2901, N-(cis-4-{[4-(dimethylamino)-5-methylpyrimidin-2-yl]amino}cyclohexyl)-2,4-difluorobenzamide]: 1 (Class 1: The value of percent of control at 10^−7 M was less than 40% or the value of IC50 was less than 50 nM.); `Cc1cnc(N[C@H]2CC[C@@H](NC(=O)c3cc(F)ccc3F)CC2)nc1N(C)C` [compound 2902, N-(cis-4-{[4-(dimethylamino)-5-methylpyrimidin-2-yl]amino}cyclohexyl)-2,5-difluorobenzamide]: 1 (Class 1: The value of percent of control at 10^−7 M was less than 40% or the value of IC50 was less than 50 nM.); `Cc1cnc(N[C@H]2CC[C@@H](NC(=O)c3ccc(F)c(F)c3F)CC2)nc1N(C)C` [compound 2903, N-(cis-4-{[4-(dimethylamino)-5-methylpyrimidin-2-yl]amino}cyclohexyl)-2,3,4-trifluorobenzamide]: 1 (Class 1: The value of percent of control at 10^−7 M was less than 40% or the value of IC50 was less than 50 nM.).
With `Cc1cnc(N[C@H]2CC[C@@H](NC(=O)c3ccccc3)CC2)nc1N(C)C` [compound 2904, N-(cis-4-{[4-(dimethylamino)-5-methylpyrimidin-2-yl]amino}cyclohexyl)benzamide] the figure was 2 (Class 2: The value of percent of control at 10^−7 M was from 40% to 60% or the value of IC′50 was from 50 nM to 200 nM.).
Next, `Cc1cnc(N[C@H]2CC[C@@H](NC(=O)c3ccc(C(C)(C)C)cc3)CC2)nc1N(C)C` [compound 2905]: 1 (Class 1: The value of percent of control at 10^−7 M was less than 40% or the value of IC50 was less than 50 nM.); `Cc1cnc(N[C@H]2CC[C@@H](NC(=O)c3ccc(Cl)cc3)CC2)nc1N(C)C` [compound 2907, 4-chloro-N-(cis-4-{[4-(dimethylamino)-5-methylpyrimidin-2-yl]amino}cyclohexyl)benzamide]: 1 (Class 1: The value of percent of control at 10^−7 M was less than 40% or the value of IC50 was less than 50 nM.).
Consider `Cc1cnc(N[C@H]2CC[C@@H](NC(=O)c3cccc(C#N)c3)CC2)nc1N(C)C` [compound 2908, 3-cyano-N-(cis-4-{[4-(dimethylamino)-5-methylpyrimidin-2-yl]amino}cyclohexyl)benzamide], for which the class is 1 (Class 1: The value of percent of control at 10^−7 M was less than 40% or the value of IC50 was less than 50 nM.).
Next, `Cc1cnc(N[C@H]2CC[C@@H](NC(=O)c3ccc(C#N)cc3)CC2)nc1N(C)C` [compound 2909, 4-cyano-N-(cis-4-{[4-(dimethylamino)-5-methylpyrimidin-2-yl]amino}cyclohexyl)benzamide]: 1 (Class 1: The value of percent of control at 10^−7 M was less than 40% or the value of IC50 was less than 50 nM.).
With `COc1ccccc1C(=O)N[C@H]1CC[C@@H](Nc2ncc(C)c(N(C)C)n2)CC1` [compound 2910] the figure was 3 (Class 3 The value of percent of control at 10^−7 M was more than 60% or the value of IC50 was more than 200 nM.); with `Cc1cnc(N[C@H]2CC[C@@H](NC(=O)c3ccc(Br)cc3)CC2)nc1N(C)C` [compound 2911, 4-bromo-N-(cis-4-{[4-(dimethylamino)-5-methylpyrimidin-2-yl]amino}cyclohexyl)benzamide], 1 (Class 1: The value of percent of control at 10^−7 M was less than 40% or the value of IC50 was less than 50 nM.); with `Cc1cnc(N[C@H]2CC[C@@H](NC(=O)c3ccc(C(F)(F)F)cc3)CC2)nc1N(C)C` [compound 2912, N-(cis-4-{[4-(dimethylamino)-5-methylpyrimidin-2-yl]amino}cyclohexyl)-4-(trifluoromethyl)benzamide], 1 (Class 1: The value of percent of control at 10^−7 M was less than 40% or the value of IC50 was less than 50 nM.).
With `COc1ccc(C(=O)N[C@H]2CC[C@@H](Nc3ncc(C)c(N(C)C)n3)CC2)cc1` [compound 2913] the figure was 3 (Class 3 The value of percent of control at 10^−7 M was more than 60% or the value of IC50 was more than 200 nM.).
`Cc1cnc(N[C@H]2CC[C@@H](NC(=O)c3ccccc3Br)CC2)nc1N(C)C` [compound 2914]: the class is 3 (Class 3 The value of percent of control at 10^−7 M was more than 60% or the value of IC50 was more than 200 nM.).
Regarding `Cc1cnc(N[C@H]2CC[C@@H](NC(=O)c3ccccc3Cl)CC2)nc1N(C)C` [compound 2915], the class is given as 3 (Class 3 The value of percent of control at 10^−7 M was more than 60% or the value of IC50 was more than 200 nM.).
Next, `Cc1cnc(N[C@H]2CC[C@@H](NC(=O)c3ccccc3F)CC2)nc1N(C)C` [compound 2916]: 3 (Class 3 The value of percent of control at 10^−7 M was more than 60% or the value of IC50 was more than 200 nM.).
Next, `Cc1ccccc1C(=O)N[C@H]1CC[C@@H](Nc2ncc(C)c(N(C)C)n2)CC1` [compound 2917]: 3 (Class 3 The value of percent of control at 10^−7 M was more than 60% or the value of IC50 was more than 200 nM.); `Cc1cnc(N[C@H]2CC[C@@H](NC(=O)c3ccccc3C(F)(F)F)CC2)nc1N(C)C` [compound 2918]: 3 (Class 3 The value of percent of control at 10^−7 M was more than 60% or the value of IC50 was more than 200 nM.).
With `Cc1cnc(N[C@H]2CC[C@@H](NC(=O)c3ccc(F)c(C(F)(F)F)c3)CC2)nc1N(C)C` [compound 2919] the figure was 1 (Class 1: The value of percent of control at 10^−7 M was less than 40% or the value of IC50 was less than 50 nM.); with `Cc1cc(C(=O)N[C@H]2CC[C@@H](Nc3ncc(C)c(N(C)C)n3)CC2)ccc1Br` [compound 2920, 4-bromo-N-(cis-4-{[4-(dimethylamino)-5-methylpyrimidin-2-yl]amino}cyclohexyl)-3-methylbenzamide], 1 (Class 1: The value of percent of control at 10^−7 M was less than 40% or the value of IC50 was less than 50 nM.).
For the molecule `CCOc1ccc(C(=O)N[C@H]2CC[C@@H](Nc3ncc(C)c(N(C)C)n3)CC2)cc1` [compound 2921, N-(cis-4-{[4-(dimethylamino)-5-methylpyrimidin-2-yl]amino}cyclohexyl)-4-ethoxybenzamide], the class is 2 (Class 2: The value of percent of control at 10^−7 M was from 40% to 60% or the value of IC′50 was from 50 nM to 200 nM.).

Values taken from US20050197350A1, “Novel quinoline, tetrahydroquinazoline, and pyrimidine derivatives and methods of treatment related to the use thereof” (TAISHO PHARMACEUTICAL CO., LTD., priority 2003, published 2005).
